Key:
Human μ-opioid (MOP) = target: T1, Human μ-opioid (MOP) (Homo sapiens, UniProt P35372); test: Radioligand binding, human μ-opioid (MOP) membranes, FlashPlate, [3H]-Naloxone; details: compound at 10 μM; [3H]-Naloxone
T1 construct: purchased Perkin Elmer Biosignal
Method in brief: (§1)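 Cloned human receptor membranes were coated onto FlashPlate wells and incubated with radioligand and compound (added from a 0.5 mM DMSO daughter plate) for 1 hour at room temperature in the dark. Scintillation counting gave percent inhibition, with DMSO defining total and reference ligand defining non-specific binding.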

Human δ-opioid (DOP) = target: T2, Human δ-opioid (DOP) (Homo sapiens, UniProt P41143); test: Radioligand binding, human δ-opioid (DOP) membranes, FlashPlate, [3H]-Bremazocine; details: compound at 10 μM; [3H]-Bremazocine
T2 construct: purchased Perkin Elmer Biosignal
T2 sequence (P41143 whole entry): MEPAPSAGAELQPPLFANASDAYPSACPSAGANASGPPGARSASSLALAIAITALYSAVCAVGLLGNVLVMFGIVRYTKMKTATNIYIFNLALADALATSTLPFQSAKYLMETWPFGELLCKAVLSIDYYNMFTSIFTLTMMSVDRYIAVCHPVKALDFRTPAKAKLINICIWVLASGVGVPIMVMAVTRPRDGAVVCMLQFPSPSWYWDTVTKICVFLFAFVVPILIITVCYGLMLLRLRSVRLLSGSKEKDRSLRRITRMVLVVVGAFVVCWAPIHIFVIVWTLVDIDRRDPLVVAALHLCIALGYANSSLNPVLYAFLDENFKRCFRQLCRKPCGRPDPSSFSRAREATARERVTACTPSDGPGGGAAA
Method in brief: as §1

[1] = target: T3, Human melanin-concentrating hormone (MCH1) (Homo sapiens, UniProt Q99705); test: Radioligand binding, human melanin-concentrating hormone MCH1 membranes, FlashPlate, [125I]-S36057; details: compound at 10 μM; [125I]-S36057
T3 construct: purchased Perkin Elmer Biosignal
T3 sequence (Q99705 whole entry): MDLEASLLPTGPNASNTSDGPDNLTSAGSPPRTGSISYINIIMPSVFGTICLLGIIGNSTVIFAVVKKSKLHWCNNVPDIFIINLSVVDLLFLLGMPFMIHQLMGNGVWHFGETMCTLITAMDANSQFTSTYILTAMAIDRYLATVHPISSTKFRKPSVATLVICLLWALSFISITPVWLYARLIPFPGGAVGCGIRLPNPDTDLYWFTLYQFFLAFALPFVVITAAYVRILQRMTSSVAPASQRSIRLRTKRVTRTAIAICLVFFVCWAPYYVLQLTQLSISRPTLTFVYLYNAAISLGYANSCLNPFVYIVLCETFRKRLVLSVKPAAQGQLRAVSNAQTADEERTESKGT
Method in brief: as §1

Human Melanocortin (MC4) = target: T4, Human Melanocortin (MC4) (Homo sapiens, UniProt P32245); test: Radioligand binding, human melanocortin MC4 membranes, FlashPlate, [125I]-NDP-αMSH; details: compound at 10 μM; [125I]-NDP-αMSH
T4 construct: purchased Perkin Elmer Biosignal
T4 sequence (P32245 whole entry): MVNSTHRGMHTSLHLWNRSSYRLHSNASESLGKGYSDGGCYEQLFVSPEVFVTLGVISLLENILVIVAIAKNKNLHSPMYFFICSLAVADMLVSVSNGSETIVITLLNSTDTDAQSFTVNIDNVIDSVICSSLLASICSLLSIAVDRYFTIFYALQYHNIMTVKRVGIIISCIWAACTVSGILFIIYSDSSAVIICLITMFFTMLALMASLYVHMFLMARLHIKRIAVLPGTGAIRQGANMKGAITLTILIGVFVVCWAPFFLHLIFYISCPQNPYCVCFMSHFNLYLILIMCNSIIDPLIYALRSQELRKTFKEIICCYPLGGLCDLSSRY
Method in brief: as §1

Human melanocortin (MC5) = target: T5, Human melanocortin (MC5) (Homo sapiens, UniProt P33032); test: Radioligand binding, human melanocortin MC5 membranes, FlashPlate, [125I]-NDP-αMSH; details: compound at 10 μM; [125I]-NDP-αMSH
T5 construct: purchased Perkin Elmer Biosignal
T5 sequence (P33032 whole entry): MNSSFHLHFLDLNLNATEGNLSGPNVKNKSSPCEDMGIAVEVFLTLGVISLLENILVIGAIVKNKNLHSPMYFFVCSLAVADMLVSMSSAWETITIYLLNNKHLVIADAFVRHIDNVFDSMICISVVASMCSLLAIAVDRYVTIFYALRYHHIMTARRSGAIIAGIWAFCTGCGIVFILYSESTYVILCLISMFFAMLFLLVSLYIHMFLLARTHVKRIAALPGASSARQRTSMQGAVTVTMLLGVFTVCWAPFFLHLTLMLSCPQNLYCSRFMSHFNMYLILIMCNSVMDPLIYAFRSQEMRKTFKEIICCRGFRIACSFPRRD
Method in brief: as §1

[2] = target: T6, Human neuropeptide Y (NPY-Y1) (Homo sapiens, UniProt P25929); test: Radioligand binding, human neuropeptide Y NPY-Y1 membranes, FlashPlate, [125I]-PYY; details: compound at 10 μM; [125I]-PYY
T6 construct: purchased Perkin Elmer Biosignal
T6 sequence (P25929 1-384): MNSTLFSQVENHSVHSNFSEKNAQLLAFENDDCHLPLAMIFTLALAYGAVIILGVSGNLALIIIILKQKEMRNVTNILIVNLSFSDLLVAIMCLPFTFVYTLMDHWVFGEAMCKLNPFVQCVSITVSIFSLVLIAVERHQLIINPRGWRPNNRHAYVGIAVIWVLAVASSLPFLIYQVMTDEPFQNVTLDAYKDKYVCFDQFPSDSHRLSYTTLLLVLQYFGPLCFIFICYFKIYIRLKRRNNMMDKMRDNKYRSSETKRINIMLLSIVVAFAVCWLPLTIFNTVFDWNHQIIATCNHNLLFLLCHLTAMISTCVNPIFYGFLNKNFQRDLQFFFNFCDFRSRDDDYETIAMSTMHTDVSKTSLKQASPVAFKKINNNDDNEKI
Method in brief: as §1

Human opioid (ORL1) = target: T7, Human opioid (ORL1) (Homo sapiens, UniProt P41146); test: Radioligand binding, human opioid ORL1 membranes, FlashPlate, [125I]-Nociceptin; details: compound at 10 μM; [125I]-Nociceptin
T7 construct: purchased Perkin Elmer Biosignal
T7 sequence (P41146 whole entry): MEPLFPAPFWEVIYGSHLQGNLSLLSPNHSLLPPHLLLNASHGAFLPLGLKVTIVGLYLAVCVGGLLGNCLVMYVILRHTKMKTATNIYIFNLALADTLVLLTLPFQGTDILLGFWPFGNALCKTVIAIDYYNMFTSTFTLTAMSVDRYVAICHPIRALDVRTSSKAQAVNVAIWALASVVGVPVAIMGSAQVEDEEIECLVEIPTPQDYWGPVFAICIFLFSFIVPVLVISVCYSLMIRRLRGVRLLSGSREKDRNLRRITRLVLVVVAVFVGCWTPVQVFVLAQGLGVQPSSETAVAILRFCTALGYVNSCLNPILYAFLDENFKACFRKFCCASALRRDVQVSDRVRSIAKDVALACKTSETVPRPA
Method in brief: as §1

Mouse urotensin (mUR2) = target: T8, Mouse urotensin (mUR2) (Mus musculus, UniProt Q8VIH9); test: Radioligand binding, mouse urotensin mUR2 membranes, FlashPlate, [125I]-Urotensin II; details: compound at 10 μM; [125I]-Urotensin II
T8 construct: purchased Perkin Elmer Biosignal
T8 sequence (Q8VIH9 1-385): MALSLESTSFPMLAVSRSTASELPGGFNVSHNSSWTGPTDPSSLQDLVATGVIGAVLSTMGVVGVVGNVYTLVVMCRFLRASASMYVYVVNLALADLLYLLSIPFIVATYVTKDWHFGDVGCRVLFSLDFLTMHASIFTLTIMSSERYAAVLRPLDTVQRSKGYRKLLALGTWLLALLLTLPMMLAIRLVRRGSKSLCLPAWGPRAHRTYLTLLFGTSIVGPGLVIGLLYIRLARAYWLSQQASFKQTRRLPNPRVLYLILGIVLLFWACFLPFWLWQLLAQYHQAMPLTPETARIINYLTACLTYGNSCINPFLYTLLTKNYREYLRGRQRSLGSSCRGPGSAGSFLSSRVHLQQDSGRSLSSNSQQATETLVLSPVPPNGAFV
Method in brief: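 Cloned mouse urotensin (mUR2) receptor membranes from Perkin Elmer Biosignal were immobilized in FlashPlate microplates using a proprietary coating. Each well got 19.5 μl buffer, then 0.5 μl of DMSO, reference ligand, or compound. Adding 5 μl of [125I]-Urotensin II, diluted to 5× final concentration in binding buffer, started binding. Plates were sealed with TopSeal-A and incubated 1 hour at room temperature in the dark. Wells were counted for 30 seconds each on a TopCount after a 60-second delay, and percentage inhibition was calculated.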

Human κ-Opioid (KOP) = target: T9, Human κ-Opioid (KOP) (Homo sapiens, UniProt P41145); test: Radioligand binding, human κ-opioid (KOP) membranes, filtration, [3H]-Diprenorphine; details: compound at 10 μM; [3H]-Diprenorphine
T9 construct: purchased Perkin Elmer Biosignal
T9 sequence (P41145 whole entry): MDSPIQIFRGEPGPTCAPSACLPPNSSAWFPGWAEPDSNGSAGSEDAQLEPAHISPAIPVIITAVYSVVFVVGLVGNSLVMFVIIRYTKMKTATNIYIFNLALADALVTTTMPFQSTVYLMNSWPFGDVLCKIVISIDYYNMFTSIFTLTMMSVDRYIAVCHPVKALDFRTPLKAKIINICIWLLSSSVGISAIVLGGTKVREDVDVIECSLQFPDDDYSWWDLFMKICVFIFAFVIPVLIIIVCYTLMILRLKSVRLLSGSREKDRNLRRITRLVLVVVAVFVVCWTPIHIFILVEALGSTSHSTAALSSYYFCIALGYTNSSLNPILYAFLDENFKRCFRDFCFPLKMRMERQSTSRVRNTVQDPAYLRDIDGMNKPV
Method in brief: (§2)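 Percent inhibition of radioligand binding measured on recombinant human membranes: NK1 with [125I]-Substance P, KOP with [3H]-Diprenorphine. Incubation 1 h at room temperature, then harvest onto 0.3% PEI-soaked filters, cold Tris-HCl pH 7.4 washes and scintillation counting; non-specific binding from reference ligand wells.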

Human Melanocortin (MC3) = target: T10, Human Melanocortin (MC3) (Homo sapiens, UniProt P41968); test: Radioligand binding, human melanocortin MC3 membranes, FlashPlate, [125I]-NDP-αMSH; details: compound at 10 μM; [125I]-NDP-αMSH
T10 construct: purchased Perkin Elmer Biosignal
T10 sequence (P41968 whole entry): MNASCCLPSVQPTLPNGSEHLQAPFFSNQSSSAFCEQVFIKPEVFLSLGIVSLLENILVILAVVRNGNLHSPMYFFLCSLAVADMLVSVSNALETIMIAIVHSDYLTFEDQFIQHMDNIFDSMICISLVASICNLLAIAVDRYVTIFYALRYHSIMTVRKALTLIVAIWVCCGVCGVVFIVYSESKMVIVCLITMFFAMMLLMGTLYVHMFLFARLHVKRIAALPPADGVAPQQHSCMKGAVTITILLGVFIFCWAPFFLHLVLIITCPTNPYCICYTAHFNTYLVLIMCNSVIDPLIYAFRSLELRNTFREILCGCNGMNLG
Method in brief: as §1

Human neurokinin (NK1) = target: T11, Human neurokinin (NK1) (Homo sapiens, UniProt P25103); test: Radioligand binding, human neurokinin NK1 membranes, filtration, [125I]-Substance P; details: compound at 10 μM; [125I]-Substance P
T11 construct: purchased Perkin Elmer Biosignal
T11 sequence (P25103 whole entry): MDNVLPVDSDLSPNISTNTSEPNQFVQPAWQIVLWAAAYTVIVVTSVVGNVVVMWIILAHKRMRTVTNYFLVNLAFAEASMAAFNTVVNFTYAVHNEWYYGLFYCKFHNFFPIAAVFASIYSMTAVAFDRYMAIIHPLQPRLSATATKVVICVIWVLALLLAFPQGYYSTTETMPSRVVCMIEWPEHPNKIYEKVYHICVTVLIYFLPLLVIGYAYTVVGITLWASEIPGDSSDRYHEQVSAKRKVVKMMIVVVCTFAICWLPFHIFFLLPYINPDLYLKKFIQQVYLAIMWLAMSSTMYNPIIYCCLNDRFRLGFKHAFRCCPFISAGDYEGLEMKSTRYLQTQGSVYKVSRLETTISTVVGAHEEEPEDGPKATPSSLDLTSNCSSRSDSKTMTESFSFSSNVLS
Method in brief: as §2

T1 sequence (P35372 whole entry): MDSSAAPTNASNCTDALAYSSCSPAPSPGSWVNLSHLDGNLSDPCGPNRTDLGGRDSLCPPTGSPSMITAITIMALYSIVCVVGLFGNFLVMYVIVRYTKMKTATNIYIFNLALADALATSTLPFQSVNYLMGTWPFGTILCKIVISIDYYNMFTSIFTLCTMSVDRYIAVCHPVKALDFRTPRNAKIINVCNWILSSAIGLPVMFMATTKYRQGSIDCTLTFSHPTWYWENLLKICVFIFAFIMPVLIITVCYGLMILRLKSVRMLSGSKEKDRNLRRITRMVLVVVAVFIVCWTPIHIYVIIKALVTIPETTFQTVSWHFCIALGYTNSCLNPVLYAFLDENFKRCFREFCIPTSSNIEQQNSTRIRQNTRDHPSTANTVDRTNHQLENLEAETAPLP

SMILES	A7 radioligand binding, percentage inhibition (Human μ-opioid (MOP))	A1 radioligand binding, percentage inhibition (Human δ-opioid (DOP))	A6 radioligand binding, percentage inhibition [1]	A4 radioligand binding, percentage inhibition (Human Melanocortin (MC4))	A5 radioligand binding, percentage inhibition (Human melanocortin (MC5))	A9 radioligand binding, percentage inhibition [2]	A10 radioligand binding, percentage inhibition (Human opioid (ORL1))	A11 radioligand binding, percentage inhibition (Mouse urotensin (mUR2))	A2 radioligand binding, percentage inhibition (Human κ-Opioid (KOP))	A3 radioligand binding, percentage inhibition (Human Melanocortin (MC3))	A8 radioligand binding, percentage inhibition (Human neurokinin (NK1))
CO[C@H]1[C@H](O)[C@@H](COCc2cccc(O)c2)OC(OCc2ccc(Cl)cc2)[C@@H]1NC(=O)CCCN (stereo partly drawn) [compound 156]	− (“−” indicates less than 50% inhibition at 10 μM)	− (“−” indicates less than 50% inhibition at 10 μM)	− (“−” indicates less than 50% inhibition at 10 μM)	− (“−” indicates less than 50% inhibition at 10 μM)	+ (“+” indicates greater than 50% inhibition at 10 μM)	− (“−” indicates less than 50% inhibition at 10 μM)	− (“−” indicates less than 50% inhibition at 10 μM)	− (“−” indicates less than 50% inhibition at 10 μM)	− (“−” indicates less than 50% inhibition at 10 μM)	− (“−” indicates less than 50% inhibition at 10 μM)	+ (“+” indicates greater than 50% inhibition at 10 μM)
COCC1OC(OCc2ccccc2)C(NC(=O)CCN)C(OCc2ccc(Cl)cc2)C1O (stereo not drawn) [compound 178]	− (“−” indicates less than 50% inhibition at 10 μM)	− (“−” indicates less than 50% inhibition at 10 μM)	− (“−” indicates less than 50% inhibition at 10 μM)	− (“−” indicates less than 50% inhibition at 10 μM)	+ (“+” indicates greater than 50% inhibition at 10 μM)	− (“−” indicates less than 50% inhibition at 10 μM)	− (“−” indicates less than 50% inhibition at 10 μM)	− (“−” indicates less than 50% inhibition at 10 μM)	− (“−” indicates less than 50% inhibition at 10 μM)	− (“−” indicates less than 50% inhibition at 10 μM)	+ (“+” indicates greater than 50% inhibition at 10 μM)
COC[C@H]1OC(OCc2cccc(O)c2)[C@H](NC(=O)CCCNC(=N)N)[C@@H](OCc2ccc(-c3ccccc3)cc2)[C@@H]1O (stereo partly drawn) [compound 144]	+ (“+” indicates greater than 50% inhibition at 10 μM)	− (“−” indicates less than 50% inhibition at 10 μM)	+ (“+” indicates greater than 50% inhibition at 10 μM)	− (“−” indicates less than 50% inhibition at 10 μM)	+ (“+” indicates greater than 50% inhibition at 10 μM)	− (“−” indicates less than 50% inhibition at 10 μM)	− (“−” indicates less than 50% inhibition at 10 μM)	− (“−” indicates less than 50% inhibition at 10 μM)	− (“−” indicates less than 50% inhibition at 10 μM)	− (“−” indicates less than 50% inhibition at 10 μM)	+ (“+” indicates greater than 50% inhibition at 10 μM)

From patent publication US20080009418A1, “Selective Inhibitors” (Alchemia LTD., priority 2004, published 2008)
